Data: article PMC8760490, “Discovery of novel furanylbenzamide inhibitors that target oncogenic tyrosine phosphatase SHP2 in leukemia cells” (The Journal of Biological Chemistry, 2021)

Tests used:
[1] = target: T1, full-length SHP2 WT (SHP2-WT) (Homo sapiens, UniProt Q06124); assay: DiFMUP fluorescence phosphatase inhibition assay, SHP2-WT activated with IRS-1 peptide; format: biochemical; settings: DiFMUP at Km (60 μM), pH 6.0
T1 construct: Recombinant human full-length SHP2 (1–594) WT and E76K mutants; made in house
Text: To test the synthesized compounds for their potential to inhibit SHP2 activity, a fluorescence intensity-based assay using 6,8-difluoro-4-methylumbelliferyl phosphate (DiFMUP) as the substrate was adapted for three recombinant SHP2 constructs: (1) the SHP2 catalytic domain (SHP2cat; residues 248–527), (2) the full-length SHP2-E76K oncogenic mutant, and (3) the full-length SHP2 WT (SHP2-WT). The recombinant SHP2 proteins were expressed and purified as described previously ([36]). A dually phosphorylated peptide derived from the insulin receptor substrate 1 (IRS-1) served as a surrogate binding protein and was used to activate SHP2-WT ([30], [36]). […] Michaelis–Menten experiments to determine the DiFMUP Michaelis–Menten constant (Km) for each SHP2 construct were performed as described previously ([36]) and yielded the following values: SHP2-WT, Km = 60 μM; SHP2-E76K, Km = 20 μM; and SHP2cat, Km = 20 μM. Relative maximum rates (Vmax) of the DiFMUP reactions expressed as relative fluorescence units per minute (RFU/min) were as follows: SHP2-WT, Vmax = 871 RFU/min; SHP2-E76K, Vmax = 2730 RFU/min; and SHP2cat, Vmax = 2912 RFU/min. IC50 values for each compound were determined from initial rates in 10-point dose–response assays using DiFMUP at a concentration corresponding to its Km value for the respective SHP2 construct. […] Replacements for the benzothiophenone were explored using analog #10.
Recombinant human full-length SHP2 (1–594) WT and E76K mutants, as well as the SHP2cat (248–527), were expressed and purified as described before ([36], [41]). Recombinant human PTP1B (1–300) and the codon-optimized STEP (280–566) catalytic domains were cloned into PET-15b and expressed as N-His-tagged fusion proteins. For expression, transformed BL21(DE3) cells were grown and induced similar as described for SHP2. Collected cells were resuspended in lysis buffer (25 mM Tris, pH 7.5, 300 mM NaCl, 50 mM imidazole, and 10% glycerol) with 100 mg/l RNaseA and were lysed with two passages using a microfluidizer. The lysate was clarified by centrifugation at 15,000g for 50 min and applied to nickel–nitrilotriacetic acid resin. The column resin was washed, and the PTP1B or STEP protein was eluted in lysis buffer at 300 mM imidazole. The PTP1B or STEP protein was further purified by S75 size-exclusion chromatography in 50 mM Tris, pH 7.5, 50 mM NaCl. The eluted peak fractions were supplemented with tris(2-carboxyethyl)phosphine to 10 mM, concentrated by ultrafiltration, and stored at −80 °C. The purified yield of PTP1B was 33 mg/l cell culture; the yield of STEP was 16 mg/l cell culture.
SHP2 inhibitors were tested at RT in a 384-well plate format standard phosphatase fluorescence intensity assay using DiFMUP (Invitrogen/Thermo Fisher Scientific) as a substrate and a total reaction volume of 25 μl. SHP2 inhibitors or vehicle (DMSO) were spotted in triplicate into a black Greiner FLUOTRAC 200 384-well microplate (catalog no.: 781076; Greiner) for a 10-point dose–response assay using an Echo 555 Liquid Handler (Labcyte, Inc). PTP working solutions were prepared at a 0.625 nM concentration (for a final concentration of 0.5 nM) in buffer containing 50 mM Bis–Tris, pH 6.0, 50 mM NaCl, 5 mM DTT, and 0.01% Tween-20. Prior to the assay, a dually phosphorylated IRS-1 peptide (625 nM [500 nM final] ([30])) was added to full-length WT SHP2 working solutions and incubated for 20 min. DiFMUP working solutions at 5× final concentration were prepared in 50 mM Bis–Tris, pH 6.0, 50 mM NaCl, and 0.01% Tween-20. About 20 μl of PTP working solution was dispensed into the microplate and incubated with inhibitor for 20 min at RT. […] The reaction was initiated by addition of 5 μl DiFMUP working solutions. Fluorescence intensity was measured in kinetic mode (every minute for 7 or 10 min) using a Tecan Spark Multimode Microplate Reader (Tecan) with an excitation wavelength of 360 nm and an emission wavelength of 460 nm. […]

[2] = tested on: KYSE-520 esophageal cancer cells; assay: Cell viability (CellTiter-Glo), KYSE-520; format: cell-based; settings: various concentrations, 3 days
Experimental: (§1) Inhibition of SHP2 has been reported to inhibit the growth of cancer cells including Kasumi-1 acute myeloid leukemia (AML) and KYSE-520 esophageal cancer cells ([30]). […] Thus, we treated two TNBC cell lines, BT-549 and MDA-MB-468, with SBI-4668 or the SHP2 allosteric inhibitor SHP099 at various concentrations and determined cell viability after 72 h, compared with the vehicle control (Fig. 4C). […] Next, we performed an 11-day colony formation assay with TNBC cells treated with SBI-4668 or SHP099 at 5, 10, or 20 μM (Fig. 4D).
(§2) Viability of AML and esophageal carcinoma cells was assessed using the ATP-depletion assay CellTiter-Glo (Promega). Cells were harvested at 1 × 10^6/ml to 2 × 10^6 cells/ml with cell numbers determined by trypan blue using the Countess Cell counter (Thermo Scientific) and resuspended in culture media. About 3000 cells (in 20 μl) were seeded in a 384-well format white and clear-bottom microplate (catalog no.: 781098; Greiner) spotted with test compound or vehicle control (DMSO) using an Echo 555 Liquid Handler. Cells were incubated for 3 days, before 10 μl of CellTiter-Glo reagent mix was added to each well and incubated for 10 min at RT. Luminescence was read on a Tecan Spark Multimode Microplate Reader, and data were analyzed using GraphPad Prism software.

[3] = tested on: Kasumi-1 acute myeloid leukemia (AML) cells; assay: Cell viability (CellTiter-Glo), Kasumi-1; format: cell-based; settings: various concentrations, 3 days
Experimental: as §1, §2

MDA-MB-468 TNBC cells [4] = assay: TNBC cell viability (CellTiter-Glo), MDA-MB-468; format: cell-based; settings: various concentrations
Experimental: as §1
(§3) Triple-negative breast cancer cell viability was assessed using the ATP-depletion assay CellTiter-Glo. Briefly, 2500 cells in 25 μl media (RPMI + 10% FBS + 1× penicillin–streptomycin [Omega Scientific]) were seeded per well of a 384-well tissue culture–treated plate (Greiner). About 25 nl of 1000× test compound were added using a Labcyte Echo acoustic dispenser, and the cells were incubated for 5 days before addition of 10 μl of CellTiter-Glo reagent as described by the manufacturer. Luminescence was detected on a BioTek Synergy 2 microplate reader, and the values normalized to those of vehicle (DMSO)-treated controls before being plotted using GraphPad Prism.

BT-549 TNBC cells [5] = assay: 11-day colony formation assay, BT-549; format: cell-based; settings: 5, 10 or 20 μM, 11 days
Experimental: as §1
(§4) MDA-MB-468 and […] triple-negative breast cancer cells were maintained in Dulbecco's modified Eagle's medium + 10% FBS supplemented with 1× penicillin–streptomycin/L-glutamine (Omega Scientific). About 1500 cells (in 300 μl) were seeded per well of a standard 24-well tissue culture plate (Falcon) and allowed to adhere for 24 h, before the addition of compound(s) as described. After a further 96 h, media were replaced with fresh media containing the same test compounds and concentrations. After 11 days, media were removed, and cells stained with 0.5% crystal violet (in 20% methanol; Sigma) for 20 min with agitation at 80 rpm. Stain was removed, and plates with stained cells were washed by being submerged in excess deionized water and allowed to air dry overnight before imaging.

MOLM-13 AML cells = assay: Cell viability (CellTiter-Glo), MOLM-13; format: cell-based; settings: 72 h, 30 μM to 58 nM, regular MOLM-13 expressing WT SHP2 (Fig. 4G); read-out: MOLM-13 cell viability IC50 (parallel to SHP2 KO)
Experimental: as §1
Finally, we evaluated the selectivity of our top two compounds, SBI-2130 and SBI-4668, on MOLM-13 AML cells in which SHP2 was depleted using CRISPR–Cas9 KO. High-efficiency Cas9-editing MOLM-13 cells were generated by transducing MOLM-13 cells with a Cas9 lentiviral construct. Stable clones were tested for editing efficiency by performing tracking of indels by decomposition analysis ([45]), and these MOLM-13-Cas9 cells were transduced with a lentiviral construct containing an AAVS1 single-guide RNA (sgRNA) and an mCherry reporter for bulk sorting of cells with successful AAVS1 editing. SHP2 KO was achieved by transducing MOLM-13-Cas9-mCherry cells with a lentivirus, containing SHP2 dual sgRNAs, resulting in ∼80% reduction of SHP2 protein levels (Fig. 4G). SBI-2130, SBI-4668, and the SHP2 allosteric inhibitor, SHP099, were tested in parallel on regular MOLM-13 cells (expressing WT SHP2) and MOLM-13-Cas9-mCherry cells with SHP2 KO. Cells were treated with inhibitors at various concentrations (ranging from 30 μM to 58 nM) or vehicle control (DMSO) for 72 h, before cell viability was assessed.
as §2, with “Cells were incubated for 3 days, before 10 μl of CellTiter-Glo reagent mix was added to each well and incubated for 10 min at RT.” left out
For SHP2 KO, dual sgRNAs targeting SHP2 were cloned in the pLentiGuide puro vector (Addgene plasmid no. 52963 from Dr Feng Zhang) using a published protocol ([50]). […] SHP2 KO was evaluated by immunoblotting. […] For SHP2 KO, MOLM-13-Cas9-mCherry cells were seeded in nontreated 6-well plates (2 × 10^6 cells/well in 2.5 ml), with cell numbers determined by trypan blue using the Countess Cell Counter (Thermo Scientific). […]

MDA-MB-468 TNBC cells [6] = assay: 11-day colony formation assay, MDA-MB-468; format: cell-based; settings: 5, 10 or 20 μM, 11 days
Experimental: as §1, §4

BT-549 TNBC cells [7] = assay: TNBC cell viability (CellTiter-Glo), BT-549; format: cell-based; settings: various concentrations
Experimental: as §1, §3

## CC(C)NC(=O)c1cccc(-c2ccc(/C=C3\Sc4ccccc4C3=O)o2)c1 [SBI-9639, (Z)-N-isopropyl-3-(5-((3-oxobenzo[b]thiophen-2(3H)-ylidene)methyl)furan-2-yl)benzamide]
[1]
  IC50: > 100 µM
[2]
  effect on KYSE-520 cell growth: no notable effects
[3]
  effect on Kasumi-1 cell growth: no notable effects

## CC1(N)CCN(c2cnc(-c3cccc(Cl)c3Cl)c(N)n2)CC1 [SHP099, reference compound]
MDA-MB-468 TNBC cells [4]
  effect on MDA-MB-468 cell viability: very minor effect
BT-549 TNBC cells [5]
  colony formation, BT-549: very weak effect
MOLM-13 AML cells
  IC50: 9.4 µM
MDA-MB-468 TNBC cells [6]
  colony formation, MDA-MB-468: very weak effect
BT-549 TNBC cells [7]
  effect on BT-549 cell viability: very minor effect
